Experimental findings from ChEMBL document CHEMBL4828717, “Synthetic cajaninstilbene acid derivatives eradicate methicillin-resistant Staphylococcus aureus persisters and biofilms” (Eur J Med Chem, 2021) are described below.

Data set [1] deals with Staphylococcus aureus. Put plainly: Antibacterial activity against methicillin resistant Staphylococcus aureus ATCC 43300 persisters assessed as reduction in colony formation at 40 ug/ml incubated for 8 hrs by colony counting method. It is filed as functional, organism-based. Conditions: dose 40.0 µg/ml.
Data set [2] relates to Enterococcus faecalis. The data set can be described thus: Antibacterial activity against Enterococcus faecalis ATCC29212 assessed as reduction in microbial growth after 16 to 18 hrs by microbroth dilution method. It is filed as functional. The settings on record: ATCC 29212, time 16-18 hrs. Background: In broth dilution the organism is exposed to a series of concentrations in liquid medium.

Data set [3] concerns Escherichia coli. The data set can be described thus: Antibacterial activity against Escherichia coli ATCC25922 assessed as reduction in microbial growth after 16 to 18 hrs by microbroth dilution method. It is filed as functional. Conditions: ATCC 25922, time 16-18 hrs.
In data set [4] the test system is Pseudomonas aeruginosa. The data set can be described thus: Antibacterial activity against Pseudomonas aeruginosa ATCC27853 assessed as reduction in microbial growth after 16 to 18 hrs by microbroth dilution method. It is filed as functional. Conditions: time 16-18 hrs.
Data set [5] deals with Staphylococcus aureus. Put plainly: Antibacterial activity against methicillin resistant Staphylococcus aureus ATCC 52056 assessed as reduction in microbial growth after 16 to 18 hrs by microbroth dilution method. It is filed as functional. The settings on record: time 16-18 hrs.
The subject of data set [6] is Staphylococcus aureus. The data set can be described thus: Antibacterial activity against methicillin resistant Staphylococcus aureus ATCC513045 assessed as reduction in microbial growth after 16 to 18 hrs by microbroth dilution method. It is filed as functional. Conditions: time 16-18 hrs.
In data set [7] the test system is Staphylococcus aureus. The data set can be described thus: Antibacterial activity against methicillin resistant Staphylococcus aureus ATCC48966 assessed as reduction in microbial growth after 16 to 18 hrs by microbroth dilution method. It is filed as functional. The settings on record: time 16-18 hrs.
Data set [8] deals with Staphylococcus aureus. The data set can be described thus: Antibacterial activity against methicillin resistant Staphylococcus aureus ATCC48073 assessed as reduction in microbial growth after 16 to 18 hrs by microbroth dilution method. It is filed as functional. Conditions: time 16-18 hrs.
Data set [9] deals with Staphylococcus aureus. The data set can be described thus: Antibacterial activity against methicillin resistant Staphylococcus aureus ATCC 62202 assessed as reduction in microbial growth after 16 to 18 hrs by microbroth dilution method. It is filed as functional. Conditions: time 16-18 hrs.
Data set [10] relates to Staphylococcus aureus. The data set can be described thus: Antibacterial activity against methicillin resistant Staphylococcus aureus ATCC 43300 assessed as reduction in microbial growth after 16 to 18 hrs by microbroth dilution method. It is filed as functional. The settings on record: time 16-18 hrs.
Data set [11] deals with Staphylococcus aureus. The data set can be described thus: Antibacterial activity against methicillin resistant Staphylococcus aureus ATCC49025 assessed as reduction in microbial growth after 16 to 18 hrs by microbroth dilution method. It is filed as functional. Conditions: time 16-18 hrs.
The test system of data set [12] is Staphylococcus aureus. The data set can be described thus: Antibacterial activity against methicillin resistant Staphylococcus aureus ATCC48706 assessed as reduction in microbial growth after 16 to 18 hrs by microbroth dilution method. It is filed as functional. Conditions: time 16-18 hrs.
The test system of data set [13] is Staphylococcus aureus. Put plainly: Antibacterial activity against methicillin resistant Staphylococcus aureus ATCC49008 assessed as reduction in microbial growth after 16 to 18 hrs by microbroth dilution method. It is filed as functional. Conditions: time 16-18 hrs.
For data set [14], the system named is Staphylococcus aureus. Put plainly: Antibacterial activity against methicillin resistant Staphylococcus aureus ATCC49800 assessed as reduction in microbial growth after 16 to 18 hrs by microbroth dilution method. It is filed as functional. Conditions: time 16-18 hrs.
The subject of data set [15] is L02. Put plainly: Cytotoxicity against human L02 cells assessed as cell viability at 10 ug/ml measured after 24 hrs by MTT assay. Conditions: l02, 24 h, dose 10 µg/ml. It is filed as cell-based.
The subject of data set [16] is Staphylococcus aureus. The data set can be described thus: Antibacterial activity against Staphylococcus aureus ATCC 25923 assessed as reduction in microbial growth after 16 to 18 hrs by microbroth dilution method. It is filed as functional. The settings on record: time 16-18 hrs.
The nature of data set [17]: (§1) Cytotoxicity against mouse RAW264.7 cells assessed as cell viability at 10 ug/ml measured after 24 hrs by MTT assay. It is filed as cell-based. Conditions: RAW264.7 cells, at 10 µg/mL, read-out: Activity. In general terms: Tetrazolium dyes change colour on reduction, which living cells bring about.
Data set [18] concerns Staphylococcus aureus. Put plainly: Antibacterial activity against methicillin resistant Staphylococcus aureus ATCC515992 assessed as reduction in microbial growth after 16 to 18 hrs by microbroth dilution method. It is filed as functional. Conditions: time 16-18 hrs.
The nature of data set [19]: Toxicity in BALB/c mouse infected with methicillin-resistant Staphylococcus aureus ATCC 43300 assessed as damage in heart at 50 to 100 mg/kg, sc administered every 24 hrs for 4 days by H&E staining based light microscopic analysis. It is filed as organism-based. Conditions: in vivo, dose 50-100 mg/kg.
The nature of data set [20]: Toxicity in BALB/c mouse infected with methicillin-resistant Staphylococcus aureus ATCC 43300 assessed as damage in liver at 50 to 100 mg/kg, sc administered every 24 hrs for 4 days by H&E staining based light microscopic analysis. It is filed as organism-based. Conditions: in vivo, dose 50-100 mg/kg.
Data set [21] in a line: Toxicity in BALB/c mouse infected with methicillin-resistant Staphylococcus aureus ATCC 43300 assessed as damage in kidney at 50 to 100 mg/kg, sc administered every 24 hrs for 4 days by H&E staining based light microscopic analysis. It is filed as organism-based. Conditions: in vivo, dose 50-100 mg/kg.
Data set [22] can be described thus: Toxicity in BALB/c mouse infected with methicillin-resistant Staphylococcus aureus ATCC 43300 assessed as damage in spleen at 50 to 100 mg/kg, sc administered every 24 hrs for 4 days by H&E staining based light microscopic analysis. It is filed as organism-based. Conditions: in vivo, dose 50-100 mg/kg.
A short description of data set [23]: Toxicity in BALB/c mouse infected with methicillin-resistant Staphylococcus aureus ATCC 43300 assessed as damage in lung at 50 to 100 mg/kg, sc administered every 24 hrs for 4 days by H&E staining based light microscopic analysis. It is filed as organism-based. Conditions: in vivo, dose 50-100 mg/kg.
Data set [24] relates to RAW264.7. The description is as §1. The settings on record: raw264.7, 24 h, dose 10 µg/ml. It is filed as cell-based.

SMILES strings stand for the structures. Calls of active or inactive are those of the source. No cut-off for these calls is given here. A value given as a limit tells only on which side of the number the result lay.

Take `CO[C@H]1/C=C/O[C@@]2(C)Oc3c(C)c(O)c4c(O)c(c(/C=N/N5CCN(C)CC5)c(O)c4c3C2=O)NC(=O)/C(C)=C\C=C\[C@H](C)[C@H](O)[C@@H](C)[C@@H](O)[C@@H](C)[C@H](OC(C)=O)[C@@H]1C`: in [1], the result was inactive.

In the case of `O=C(O)c1cn(C2CC2)c2cc(N3CCNCC3)c(F)cc2c1=O`, in data set [1], the outcome was inactive.

As usually defined, the MIC is the least concentration at which growth counts as inhibited. Regarding `CC(C)=CCc1c(OC2CCOCC2)cc(/C=C/c2ccc(F)cc2)c(C(=O)O)c1O`, the MIC in data set [2] is more than 32 µg/mL; in data set [3], more than 32 µg/mL; in [4] it was more than 32 µg/mL; in data set [5], 8 µg/mL; in data set [6], 16 µg/mL; in [7], 16 µg/mL. The MIC in data set [8] was found to be 16 µg/mL; in [9], 32 µg/mL; in data set [10], 1 µg/mL; in data set [11] it was 16 µg/mL; in data set [12] it was 16 µg/mL; in data set [13], 16 µg/mL. In addition, the MIC in [14] came to 16 µg/mL; in data set [16] it was 16 µg/mL; in data set [18], 32 µg/mL. For the same compound, in [15], the Activity entry was “Toxic”. Moreover, in [17], the viability at 24 h, 10 ug/ml was more than 60%.

As for `CCCCCCCCCC(=O)N[C@@H](Cc1c[nH]c2ccccc12)C(=O)N[C@H](CC(N)=O)C(=O)N[C@@H](CC(=O)O)C(=O)N[C@@H]1C(=O)NCC(=O)N[C@@H](CCCN)C(=O)N[C@@H](CC(=O)O)C(=O)N[C@H](C)C(=O)N[C@@H](CC(=O)O)C(=O)NCC(=O)N[C@H](CO)C(=O)N[C@@H]([C@H](C)CC(=O)O)C(=O)N[C@@H](CC(=O)c2ccccc2N)C(=O)O[C@@H]1C`, the outcome in [1] was inactive.

For the compound `CN[C@H](CC(C)C)C(=O)N[C@H]1C(=O)N[C@@H](CC(N)=O)C(=O)N[C@H]2C(=O)N[C@H]3C(=O)N[C@H](C(=O)N[C@H](C(=O)O)c4cc(O)cc(O)c4-c4cc3ccc4O)[C@H](O)c3ccc(c(Cl)c3)Oc3cc2cc(c3O[C@@H]2O[C@H](CO)[C@@H](O)[C@H](O)[C@H]2O[C@H]2C[C@](C)(N)[C@H](O)[C@H](C)O2)Oc2ccc(cc2Cl)[C@H]1O` [VANCOMYCIN], the Activity entry in data set [19], in data set [20], in data set [21], in data set [22] and in [23] was “Non-Toxic” throughout.

Turning to `CC(C)=CCc1c(OC2CCC2)cc(/C=C/c2ccc(F)cc2)c(C(=O)O)c1O`, the MIC in data set [2] was more than 32 µg/mL; in data set [3], more than 32 µg/mL; in [4] it was more than 32 µg/mL; in data set [5], 2 µg/mL; in [6], 2 µg/mL; in [7], 2 µg/mL. Further, the MIC in data set [8] is 2 µg/mL; in data set [9] it was 4 µg/mL; in data set [10], 2 µg/mL; in [11] it was 2 µg/mL; in data set [12], 2 µg/mL; in data set [13] it was 2 µg/mL. For the same compound, the results for the MIC in data set [14], in data set [16] and in data set [18] were 2 µg/mL, 2 µg/mL and 4 µg/mL, respectively. In addition, the Activity entry in [15] and in data set [24] was “Toxic” each time.
